Data set [1] can be described thus: Human metabolic stability half-life assay (liver microsomes). It is filed as in vitro ADME. The note with it: pH 7.4, human liver microsomes, CYP-mediated (NADPH-dependent), 0.5 μM compound, 45-minute time course, read-out: HLM (t1/2, min). As to the method:
Metabolic Stability Half-Life Panel
Result Interpretation Guideline
Incubation with Liver Microsomes
Sample Analysis—Instrumentation
In general terms: Liver microsomes are a subcellular fraction often used to study metabolism.

In another data set the test system is human Notch 3. As to the kind of experiment: Notch-CBF1 Transactivation Assay (luciferase reporter, transfected HeLa cells), Notch 3. The format is cell-based. The following applies: read-out: Notch 3 (IC50); HeLa cells transfected with truncated Notch 3 and CBF1 luciferase reporter, 18 hours incubation. From the text: (§1) Notch-CBF1 Transactivation Assay
(§2) The Notch-CBF1 (C-promoter binding factor I) cell based transactivation assay is based on the ability of the released Notch intracellular domain fragments (NICDs) to function as transcription factors in conjunction with CBF1 and other nuclear factors. Luciferase assays were used to measure the antagonism of Notch-CBF1 transcriptional activity. HeLa cervical cancer cells are transiently co-transfected with pCDNA3.1/Hygro plasmids containing truncated Notch 1, Notch 2, Notch 3, or Notch 4 receptors and a PGL3 luciferase reporter vector containing 4 copies of CBF1 binding site. The cells were then tested for Notch-CBF1 activity in the absence or presence of test compounds. HeLa cells, maintained in DMEM (high glucose with HEPES), 1× glutamine/penicillin/streptomycin and 10% Fetal Bovine serum, were transiently transfected in a T175 Flask (4.5×10^6 cells/flask) using the Monster Transfection Kit (Minis #MIR2906) according to manufacturers specifications. Table 2 denotes respective DNA quantity for the transfections.
(§3) Assay media (5 μL) containing test compounds in final concentrations ranging from 5 μM to 8.4×10^−5 μM (3 fold serial dilutions) were added to the cells and the cell plates were then incubated for 18 hours at 37° C. and 5% CO2. Control wells contained DMSO vehicle (total counts) or 0.5 μM of an in-house small molecule inhibitor (background counts). Duplicates were used for each sample. Luciferase activity was measured after a 20-minute incubation with 50 μl STEADY-GLO® luciferase reagents according to manufacturer's specifications (Promega, Cat. #E2550) and analyzed by Envision plate reader (PerkinElmer, Boston, Mass.).
(§4) The antagonist effect of compounds was expressed as 100×[1−(average sample−average background)/(average total−average background)] where sample is the luciferase activity in the presence of test compound, background is equal to the luciferase activity in the presence of the small molecule inhibitor control and the total is signal induced in DMSO wells.
On the technique in general: Reporter assays use an easily measured gene product as a stand-in for the process of interest.

A further data set relates to human Notch 1. As to the kind of experiment: Notch-CBF1 Transactivation Assay (luciferase reporter, transfected HeLa cells), Notch 1. It is filed as cell-based. The following applies: read-out: Notch 1 (IC50); HeLa cells transfected with truncated Notch 1 and CBF1 luciferase reporter, 18 hours incubation.
Text: as §1, §2, §3, §4

Data set [2] in a line: High Throughput (HT) Metabolic Stability Panel, mouse microsomes. It is filed as in vitro ADME. The following applies: ten-minute incubation, control compound expected values. As to the method:
(§5) High Throughput (HT) Metabolic Stability Panel
(§6) Each compound was tested in duplicate.
(§7) Methods and Materials Incubation with Liver Microsomes
(§8) Peak integration was performed with the XCALIBUR® software.
(§9) A set of three compounds was tested along with the test compound in each assay plate.

Data set [3] can be described thus: High Throughput (HT) Metabolic Stability Panel, monkey microsomes. It is filed as in vitro ADME. The following applies: ten-minute incubation, control compound expected values. As to the method: as §5, §6, §7, §8, §9
Data set [4] in a line: High Throughput (HT) Metabolic Stability Panel, human microsomes. The note with it: ten-minute incubation, control compound expected values. The format is in vitro ADME. As to the method: as §5, §6, §7, §8, §9
Data set [5] in a line: High Throughput (HT) Metabolic Stability Panel, rat microsomes. The format is in vitro ADME. The following applies: ten-minute incubation, control compound expected values. As to the method:
as §5, §6, §7, §8, §9

The nature of data set [6]: High Throughput (HT) Metabolic Stability Panel, dog microsomes. It is filed as in vitro ADME. The note with it: ten-minute incubation, control compound expected values. As to the method: as §5, §6, §7, §8, §9

Experimental findings from US9133139B2, “Fluoroalkyl-1,4-benzodiazepinone compounds” (BRISTOL-MYERS SQUIBB COMPANY, priority 2012, dated 2015) are described below.

Usually IC50 stands for the midpoint of a concentration-inhibition curve. On to `Cc1nocc1[C@H](C(N)=O)[C@@H](CCC(F)(F)F)C(=O)N[C@H]1N=C(c2ccccc2)c2ccccc2N(c2ccc(Cl)cn2)C1=O` [Example 23, (2R,3R)—N-((3S)-1-(5-Chloro-2-pyridinyl)-2-oxo-5-phenyl-2,3-dihydro-1H-1,4-benzodiazepin-3-yl)-3-(3-methyl-4-isoxazolyl)-2-(3,3,3-trifluoropropyl)succinamide], for which, in data set [1], the half-life at 0.5 μM is not below 30 min. The values for the IC50 in the data set with human Notch 3 and in the data set with human Notch 1 were 0.0137 µM and 0.0154 µM, respectively.
The matching figures for `Cc1cccc2c1NC(=O)[C@@H](NC(=O)[C@H](CCC(F)(F)F)[C@@H](C(N)=O)c1conc1C)N=C2c1ccc(F)cc1` [Example 33, (2R,3R)—N1-((S)-5-(4-Fluorophenyl)-9-methyl-2-oxo-2,3-dihydro-1H-benzo[e][1,4]diazepin-3-yl)-3-(3-methylisoxazol-4-yl)-2-(3,3,3-trifluoropropyl)succinamide]: not below 30 min, 0.0115 µM and 0.019 µM.
Take `CCc1nn(CCCN2CCN(c3cccc(Cl)c3)CC2)c(=O)n1CCOc1ccccc1` [Nefazodone]: the “Average Percent Remaining ± SD, Mouse” value in data set [2] worked out at 0.4 ± 0.3%. Also, the “Average Percent Remaining ± SD, Monkey” value in data set [3] is on record as 0.6 ± 0.5%. The “Average Percent Remaining ± SD, Human” value in data set [4] is 0.4 ± 0.4%. Besides, in data set [5], the “Average Percent Remaining ± SD, Rat” value worked out at 0.7 ± 0.6%. For the same compound, the “Average Percent Remaining ± SD, Dog” value in data set [6] came to 0.4 ± 0.4%.
